Results: the NIST ThermoML archive (doi:10.1021/je020178w)

Legend:
[1] = 308.15 K, 101.3 kPa, Liquid; for viscosity: Capillary tube (Ostwald / Ubbelohde) method
[2] = xn = mol fraction of the nth substance listed; conditions: 308.15 K, 101.3 kPa, Liquid; for viscosity: Capillary tube (Ostwald / Ubbelohde) method

OCCO [1,2-ethanediol]
Conditions | viscosity [mPa·s]
[1] | 10.59

CNC(C)=O [N-methylacetamide]
[1]
Conditions | mass density [kg/m3] | viscosity [mPa·s]
– | 958.9 | 3.67

CNC(C)=O [N-methylacetamide] + OCCO
[2]
Conditions | mass density [kg/m3]
x1 = 0.0847 | 1089.5
x1 = 0.212 | 1068.3
x1 = 0.3298 | 1049.4
x1 = 0.4247 | 1034.9
x1 = 0.5255 | 1020.5
x1 = 0.6275 | 1006.3
x1 = 0.7471 | 990.5
x1 = 0.8412 | 978.6
x1 = 0.9347 | 967.3
x1 = 1 | 958.9

CNC(C)=O [N-methylacetamide] + OCCOCCO
[2]
Conditions | mass density [kg/m3] | viscosity [mPa·s]
x1 = 0.1121 | 1094.4 | 16.13
x1 = 0.2394 | 1079.9 | 14.47
x1 = 0.3419 | 1067.4 | 13.11
x1 = 0.4564 | 1052.2 | 11.57
x1 = 0.5574 | 1037.8 | 10.17
x1 = 0.6538 | 1023.2 | 8.8
x1 = 0.7649 | 1005.3 | 7.2
x1 = 0.8343 | 993 | 6.16
x1 = 0.9252 | 975.2 | 4.8
x1 = 1 | 958.9 | 3.67

CNC(C)=O [N-methylacetamide] + OCCOCCOCCO
[2]
Conditions | mass density [kg/m3] | viscosity [mPa·s]
x1 = 0.1142 | 1103.7 | 21.93
x1 = 0.2059 | 1095.7 | 20.39
x1 = 0.3069 | 1085.6 | 18.59
x1 = 0.4265 | 1071.8 | 16.35
x1 = 0.5415 | 1056.3 | 14.01
x1 = 0.6392 | 1041 | 11.91
x1 = 0.7266 | 1025.3 | 9.98
x1 = 0.8278 | 1004.5 | 7.74
x1 = 0.9307 | 979.5 | 5.3
x1 = 1 | 958.9 | 3.67

OCCOCCO [diethylene glycol]
[1]
Conditions | mass density [kg/m3] | viscosity [mPa·s]
– | 1105.6 | 17.59

OCCOCCO [diethylene glycol] + CNC(C)=O
[2], x2 = 0
Conditions | mass density [kg/m3] | viscosity [mPa·s]
– | 1105.6 | 17.59

OCCOCCOCCO [triethylene glycol]
[1]
Conditions | mass density [kg/m3] | viscosity [mPa·s]
– | 1112.1 | 23.84

OCCOCCOCCO [triethylene glycol] + CNC(C)=O
[2], x2 = 0
Conditions | mass density [kg/m3] | viscosity [mPa·s]
– | 1112.1 | 23.84
